Measured values taken from patent publication US6511804B1, “Selective assay for determining the identity of live microorganisms in a mixed culture” (priority 1998, dated 2003).
Like-named read-outs stand apart in the source and are kept apart here.

Columns and labels:
P. mirabilis = assay: Ampicillin resistance of the P. mirabilis strain; format: cell-based, Proteus mirabilis; details: P. mirabilis strain used in these studies
E. coli (C600) [1] = assay: Ampicillin sensitivity of E. coli C600 as stated; format: cell-based
E. coli (C600) [2] = assay: Mixed culture P. mirabilis:E. coli 50:1 with ampicillin, BrdU immunocapture and FlaA PCR; format: cell-based; details: 50:1 P. mirabilis:E. coli; L-broth with 5, 10, or 20 μg/ml ampicillin
E. coli = format: cell-based
E. coli strain W3110 = assay: Growth curves of E. coli strain W3110 in L-broth with antibiotic or BrdU; format: cell-based; details: FIG. 3
[3] = system: T. denticola (ATCC number 35405); assay: BrdU immunocapture/PCR antibiotic sensitivity of Treponema denticola; format: cell-based; details: FIG. 9; for BrdU incorporation / immunocapture PCR signal: T. denticola; for sensitivity or resistance of T. denticola: anaerobic culture, no negative immunocapture control
Experimental: Treponema denticola was also studied using the invention. In these studies, a culture of T. denticola (ATCC number 35405) was inoculated into fresh media and grown anaerobically for 1 day in NOS media (ATCC media formulation 1494). The cultures were grown as in Part A of this Example, except that the cultures were incubated for about 8 hours prior to the addition of BrdU, they were incubated overnight after the addition of BrdU, and the samples were analyzed the next day. The PCR was conducted in the manner described above, except that a GroEL primer set was not available and a primer set for the FlgE gene (endoflagellar subunit protein) referred to FlgE001 and FlgE006 was substituted. These primers were expected to give rise to a 542 bp PCR fragment.

[4] = system: H. actinomycetemcomitans (ATCC No. 43718); assay: BrdU immunocapture/PCR antibiotic sensitivity of H. actinomycetemcomitans; format: cell-based, Haemophilus actinomycetemcomitans; details: anaerobic culture; FIG. 8
Experimental: H. actinomycetemcomitans is reported to be a human pathogen, and has been implicated in juvenile periodontitis. In these studies, a culture of H. actinomycetemcomitans (ATCC No. 43718; previously known as Actinobacillus actinomycetemcomitans) was grown to saturation under anaerobic conditions as in part A, above, except that hemin was not added to the medium. The culture was diluted 1:10 into fresh media, and grown for a further 4 hours under anaerobic conditions. At this point, the culture was divided into aliquots and subjected to the same testing protocol as was employed in part A of this Example, except that after the BrdU was added, the 2 hour incubation was followed for convenience by overnight storage under refrigeration at 4° C. The next day, the aliquoted cultures were lysed by the NaOH lysis protocol described above, PCR was performed, and the capture probe set forth in Table 1 for this organism was employed.

[5] = system: Porphyromonas gingivalis (ATCC No. 33277); assay: BrdU immunocapture/PCR antibiotic sensitivity of Porphyromonas gingivalis; details: anaerobic culture; 2 hours antibiotic then 2 hours BrdU; FIG. 7
E. coli strain NK5830 [6] = format: cell-based; details: antibiotic at final concentration 100 μg/ml, FIG. 3
E. coli strain NK5830 [7] = assay: BrdU immunocapture/PCR antibiotic sensitivity assay, strain NK5830; details: antibiotic 100 μg/ml, FIG. 4

CC1(C)S[C@@H]2[C@H](NC(=O)[C@H](N)c3ccccc3)C(=O)N2[C@H]1C(=O)O [Ampicillin]
ampicillin concentration to which the strain is resistant (P. mirabilis): over 400 μg/ml
sensitivity to ampicillin (E. coli (C600) [1]): extremely sensitive
PCR products obtained (E. coli 1 kb / P. mirabilis 800 bp) (E. coli (C600) [2]): only the P. mirabilis PCR product
detectable BrdU compared to the control (E. coli; E. coli strain W3110): lack of detectable BrdU compared to the control
effect on cells (lysis) (E. coli; E. coli strain W3110): lysed

O=c1[nH]c(=O)n([C@H]2C[C@H](O)[C@@H](CO)O2)cc1Br [BrdU, 5-bromo-2′-deoxyuridine]
growth profile after addition of BrdU (E. coli strain W3110; BrdU added at 2.5 hours): did not change the growth profile

O=C(N[C@H](CO)[C@H](O)c1ccc([N+](=O)[O-])cc1)C(Cl)Cl [Chloramphenicol]
effect on the growth of E. coli (E. coli): significantly reduced growth

[H]/N=C(/N)N[C@H]1[C@H](O)[C@@H](O)[C@H](O[C@@H]2O[C@@H](C)[C@](O)(C=O)[C@H]2O[C@@H]2O[C@@H](CO)[C@H](O)[C@@H](O)[C@@H]2NC)[C@@H](N/C(N)=N\[H])[C@@H]1O [Streptomycin]
effect on the growth of E. coli (E. coli): little or no effect

Cc1ncc([N+](=O)[O-])n1CCO [metronidazole]
BrdU incorporation / immunocapture PCR signal [3]: level of BrdU incorporation is at background
sensitivity or resistance of T. denticola [3]: sensitive
sensitivity or resistance of H. actinomycetemcomitans [4]: resistance
sensitivity or resistance of P. gingivalis [5]: sensitive

CCn1cc(C(=O)O)c(=O)c2ccc(C)nc21 [nalidixic acid]
growth (growth curve) (E. coli strain W3110; antibiotic at final concentration 100 μg/ml): inhibited growth
growth (growth curve) (E. coli strain NK5830 [6]): did not cause any growth inhibition
BrdU incorporation / immunocapture PCR signal [3]: equivalent to the positive control
sensitivity or resistance of T. denticola [3]: resistant
sensitivity or resistance of H. actinomycetemcomitans [4]: sensitivity
effect on the growth of E. coli (E. coli): greatest effect
immunocapture/PCR signal (BrdU-labeled DNA, gel) (E. coli strain NK5830 [7]): strong positive signal
sensitivity or resistance of P. gingivalis [5]: resistant

gentamycin
effect on the growth of E. coli (E. coli; compared to controls grown in the absence of the antibiotic): greatest effect
